In ChEMBL document CHEMBL1201862, “PubChem BioAssay data set” (2004):
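Each compound was tested at five concentrations against cells in 96-well plates for 48 hours. GI50 is the concentration that inhibits growth by half.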 The source made the active and inactive calls. Cut-off read from the data, not from the text of the source: active = GI50 up to about 1.1 µM and inactive = higher.

How the values were obtained:
Experiment in all cases: NCI anticancer screen, dose series, 48 h
SK-MEL-28 = tested on: SK-MEL-28
OVCAR-4 = tested on: OVCAR-4
SN12C = tested on: SN12C
EKVX = tested on: EKVX
UO-31 = tested on: UO-31
A549 = tested on: A549
NCI-H460 = tested on: NCI-H460
KM12 = tested on: KM12
RPMI-8226 = tested on: RPMI-8226
NCI-H522 = tested on: NCI-H522
SK-MEL-5 = tested on: SK-MEL-5
OVCAR-3 = tested on: OVCAR-3
COLO 205 = tested on: COLO 205
MOLT-4 = tested on: MOLT-4
SW-620 = tested on: SW-620
786-0 = tested on: 786-0
HOP-92 = tested on: HOP-92
SK-MEL-2 = tested on: SK-MEL-2

Measured: GI50

Cc1ccc(N2C[N+](c3ccccc3)=NC(c3ccccc3)=N2)cc1
inactive: SK-MEL-28 55.7 µM | OVCAR-4 40.1 µM | SN12C 62.2 µM | EKVX 32.4 µM | UO-31 35.9 µM | A549 66.8 µM | NCI-H460 54.1 µM | KM12 67.6 µM | RPMI-8226 33 µM | NCI-H522 > 10 µM | SK-MEL-5 23.9 µM | OVCAR-3 29.4 µM | COLO 205 31.8 µM | MOLT-4 21.3 µM | SW-620 51.8 µM | 786-0 68.9 µM

CSc1ccc(NC(=O)C2c3[nH]c4ccccc4c3C3CCC(C(C)(C)C)CC3C2C(=O)O)cc1 (stereo unspecified)
inactive: SK-MEL-28 22.9 µM | OVCAR-4 18.4 µM | SN12C 18.6 µM | EKVX 24.3 µM | UO-31 17.5 µM | A549 15.2 µM | RPMI-8226 20.3 µM | NCI-H522 15 µM | SK-MEL-5 21.1 µM | HOP-92 23.2 µM | COLO 205 18 µM | MOLT-4 15.1 µM | SW-620 17.7 µM | 786-0 17.5 µM

O=C1C[C@@H]2CCCC[C@@H]2C12SCCS2
inactive: SK-MEL-28 89.3 µM | OVCAR-4 > 100 µM | SN12C > 100 µM | EKVX > 100 µM | UO-31 32.1 µM | SK-MEL-2 > 100 µM | A549 > 100 µM | NCI-H460 > 100 µM | KM12 > 100 µM | RPMI-8226 > 100 µM | NCI-H522 69 µM | SK-MEL-5 92.5 µM | OVCAR-3 > 100 µM | COLO 205 > 100 µM | MOLT-4 69.8 µM | SW-620 > 100 µM | 786-0 > 100 µM

Cc1cc(O)nc(CNC(=O)c2cccc3ccccc23)n1
inactive: SK-MEL-28 > 100 µM | OVCAR-4 > 100 µM | SN12C > 100 µM | EKVX > 100 µM | UO-31 > 100 µM | A549 > 100 µM | NCI-H460 > 100 µM | NCI-H522 > 100 µM | SK-MEL-5 > 100 µM | OVCAR-3 > 100 µM | HOP-92 > 100 µM | COLO 205 > 100 µM | MOLT-4 > 100 µM | SW-620 > 100 µM | 786-0 > 100 µM

COCC12CC(CC1=O)C1C2ON2c3ccccc3C(=O)C12c1ccccc1 (stereo unspecified)
inactive: SK-MEL-28 > 100 µM | OVCAR-4 4.9 µM | SN12C > 100 µM | EKVX > 100 µM | UO-31 > 100 µM | A549 > 100 µM | RPMI-8226 40.7 µM | NCI-H522 > 100 µM | SK-MEL-5 > 100 µM | HOP-92 > 100 µM | COLO 205 > 100 µM | MOLT-4 52.5 µM | SW-620 > 100 µM | 786-0 > 100 µM
